The source of these data is US8153658B2, “Piperidine derivative or salt thereof” (Astellas Pharma, Inc., priority 2006, dated 2012).

Where a name gives a salt, the structure may show the parent alone.

Data set [1] has as its target T1, CYP2D6 (Homo sapiens, UniProt P10635). The conditions noted are these: reported, Non-Patent Document 4; cited from earlier work.
A further data set deals with T2, human CaSR (Homo sapiens, UniProt P41180).
T2 construct: a human CaSR open reading frame (ORF) was contained in the pcDNA3.1/Zeo(+) vector; expressed in transfected cells
T2 sequence (P41180 20-1078): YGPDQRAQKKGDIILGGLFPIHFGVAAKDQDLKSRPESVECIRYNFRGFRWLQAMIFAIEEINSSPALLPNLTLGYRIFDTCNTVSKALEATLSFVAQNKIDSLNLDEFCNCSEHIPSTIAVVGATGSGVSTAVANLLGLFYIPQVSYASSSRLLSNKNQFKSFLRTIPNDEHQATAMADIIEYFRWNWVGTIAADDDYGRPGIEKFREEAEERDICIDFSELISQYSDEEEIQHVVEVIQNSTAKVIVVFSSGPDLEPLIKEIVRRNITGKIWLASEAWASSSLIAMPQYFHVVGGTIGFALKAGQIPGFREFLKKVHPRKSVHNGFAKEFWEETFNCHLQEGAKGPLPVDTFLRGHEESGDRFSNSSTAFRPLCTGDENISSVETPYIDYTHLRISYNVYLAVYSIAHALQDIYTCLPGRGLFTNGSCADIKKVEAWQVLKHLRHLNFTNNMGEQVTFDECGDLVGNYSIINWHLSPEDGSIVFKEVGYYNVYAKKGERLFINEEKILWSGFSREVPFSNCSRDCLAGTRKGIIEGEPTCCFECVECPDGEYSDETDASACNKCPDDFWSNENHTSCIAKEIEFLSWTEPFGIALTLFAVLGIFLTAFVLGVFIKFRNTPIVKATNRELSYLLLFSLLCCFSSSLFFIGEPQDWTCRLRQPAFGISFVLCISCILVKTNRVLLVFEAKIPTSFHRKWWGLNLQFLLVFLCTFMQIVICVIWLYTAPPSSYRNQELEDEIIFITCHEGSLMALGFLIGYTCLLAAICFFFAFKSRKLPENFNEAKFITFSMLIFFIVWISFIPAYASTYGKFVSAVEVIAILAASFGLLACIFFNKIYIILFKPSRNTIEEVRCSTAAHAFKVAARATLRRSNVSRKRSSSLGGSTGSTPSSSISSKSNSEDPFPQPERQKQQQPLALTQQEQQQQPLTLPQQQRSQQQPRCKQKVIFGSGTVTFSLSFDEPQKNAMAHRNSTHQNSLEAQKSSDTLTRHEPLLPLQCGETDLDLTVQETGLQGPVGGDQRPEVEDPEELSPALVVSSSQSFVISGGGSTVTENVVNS
Description: Human calcium sensing receptor (CaSR) agonism test (Fluo-3 / FLIPR). Format: cell-based. The conditions noted are these: HEK 293 cell stably expressing human CaSR; 0.5 mM Ca2+; 2 mM Ca2+ group = 100%; read-out: EC50 (compound concentration showing 50% human CaSR agonistic activity). An excerpt:
Test 1. Human calcium sensing receptor (CaSR) agonism test
1) Preparation of Human CaSR Expression Vector
A DNA fragment coding for human CaSR was cloned in the standard method.
Illustratively, using 203 to 2387 of NM_000388 as a DNA fragment D4, and 2210 to 3633 as a DNA fragment B2, they were amplified using a human kidney cDNA (manufactured by Invitrogen) as the template and using a DNA polymerase (a registered trade name: Pyrobest, manufactured by Takara Bio), and respectively cloned into a pCR2.1 vector using a pCR2.1-Topo vector (manufactured by Invitrogen). Next, the DNA fragments prepared by digesting the pCR2.1-D4 with SpeI and XbaI were inserted into the same sites of pcDNA3.1/Zeo(+) vector. Successively, the fragments prepared by digesting pCR2.1-B2 with SacI and XbaI were inserted into the SacI and XbaI sites of previously prepared pcDNA3.1/Zeo(+)-D4(SpeI-XbaI), thereby obtaining a human CaSR expression vector pcDNA3.1/Zeo(+)-hCaSR in which a human CaSR open reading frame (ORF) was contained in the pcDNA3.1/Zeo(+) vector.
2) Preparation of Human CaSR Expression Cell
The human CaSR expression vector was transferred into a HEK 293 cell using a transfection reagent (registered trademark: FuGene 6, manufactured by Roche Diagnostics). After the gene transfer, this was cultured in a DMEM (manufactured by Invitrogen) medium containing 40 μg/ml Zeocin (registered trademark, manufactured by Invitrogen) and a 10% fetal bovine serum at 37° C. for 2 weeks in the presence of 5% CO2, thereby obtaining Zeocin-resistant clones. A human CaSR stably expressing HEK 293 clone was obtained from these clones by selection using the responsiveness to extracellular Ca^2+ as an index.
3) Human CaSR Agonism Test
The HEK 293 cell stably expressing human CaSR was inoculated into a poly-D-lysine-coated black clear bottom 96 well plate (manufactured by BD Biosciences). Hanks' balanced salt solution (HBSS) (Ca^2+ (−), Mg^2+ (−), manufactured by Invitrogen) containing a 20 mM HEPES (2-[4-(2-hydroxyethyl)-1-piperazinyl]ethanesulfonic acid) buffer (pH 7.4), 2.5 mM of probenecid (manufactured by Sigma), and 0.1% of bovine serum albumin was prepared as a washing buffer. After the inoculation and the subsequent overnight culturing, the medium was discarded, the washing buffer supplemented with 1 mM CaCl2 and 10 μM Fluo-3 AM (trade name, manufactured by DOJINDO) was added thereto in 100 μl per well portions, and then the incubation was carried out at 37° C. for 1 hour in the presence of 5% CO2. This was washed twice with 200 μl of the washing buffer, replaced by 100 μl of the washing buffer supplemented with 0.5 mM CaCl2 and allowed to stand still for 10 minutes, and then the responsiveness to each compound to be evaluated was detected using a plate reader for fluorometry image analysis use (registered trademark: FLIPR, manufactured by Molecular Devices). In this connection, the compound to be evaluated was used by optionally diluting with the washing buffer supplemented with 0.5 mM Ca^2+.
The human CaSR agonistic activity strength of each compound to be evaluated was calculated by defining the solvent group as 0% and the 2 mM of Ca^2+ in the final concentration group as 100%, and the compound concentration showing 50% activity (EC50) was calculated from a concentration-activity curve by the method of least squares.

A short description of data set [2]: Measurement of rat plasma calcium concentration. Format: in vivo. The conditions noted are these: normal male rats, single oral administration 3 mg/kg, 2 hours after administration, read-out: Rat plasma calcium concentration reducing ratio (%) 2 hours after administration (3 mg/kg). Here is the method:
Test 2. Measurement of Rat Plasma Calcium Concentration and Plasma PTH Concentration
The compounds of the present invention were administered to rats, and their influences upon the plasma calcium concentration and the plasma PTH concentration were examined. The test was carried out by single oral administration of the compounds of the present invention and the control compounds to 5 to 6 normal male rats, or male rats with renal failure, respectively As a vehicle group, 0.5% of a methyl cellulose (MC) solution was administered at a dose of 5 ml/kg. As a reference compound, cinacalcet was dissolved in the MC solution and administered at a dose of 3 mg/kg. Each of the compounds of the present invention was dissolved or suspended in the MC solution, and administered at a dose of 1, 3 or 10 mg/kg.
Blood samples were collected from the orbital venous plexus under ether anesthesia before the administration and 2 hours, 4 hours, or 8 hours in some cases, after the administration, and the plasma calcium concentration was measured using Calcium E-Test Wako (manufactured by Wako Pure Chemical Industries), and the plasma PTH concentration was measured using a Rat Intact PTH ELISA Kit (manufactured by Immutopics).

Data set [3] concerns the target T1, CYP2D6. Nature of the data set: Human CYP2D6 inhibition test. The conditions noted are these: CYP2D6 7.5 pmol/mL; fluorescence substrate AMMC 1.5 μM; 37° C. 30 minutes. Also on record: purchased BD Gentest 456217. Format: biochemical. The method, then:
Test 3. Human CYP2D6 Inhibition Test
Inhibitory activity evaluation for CYP2D6 was carried out by measuring it in accordance, roughly, with a reference (“Drug Metabolism and Disposition”, 2001, vol. 29, p. 1196-1200).
Final concentrations of the reagents in the enzyme reaction solution were respectively set to CYP2D6=7.5 pmol/mL (manufactured by BD Gentest, Catalog No. 456217), reduced type nicotinamide adenine dinucleotide phosphate (NADPH) regeneration system (0.0081 mM nicotinamide adenine dinucleotide phosphate (NADP+), 0.41 mM glucose-6-phosphate, 0.41 mM MgCl2, 0.4 units glucose-6-phosphate dehydrogenase), and a fluorescence substrate AMMC=1.5 μM, 100 mM potassium phosphate buffer (pH 7.4). Each compound was made into a 50% acetonitrile solution and added to the enzyme reaction solution (acetonitrile final concentration 2.5%). The enzyme reaction was carried out at 37° C. for 30 minutes, the reaction was stopped using a stopping liquid (0.1 M tris(hydroxymethyl)aminomethane (Tris-base):acetonitrile=20:80), and the fluorescence intensity was then measured. The concentration showing 50% inhibition (IC50) was calculated from the thus obtained fluorescence intensity, by defining the enzyme activity at a time of no compound addition as 100%.

T1 sequence (P10635 whole entry): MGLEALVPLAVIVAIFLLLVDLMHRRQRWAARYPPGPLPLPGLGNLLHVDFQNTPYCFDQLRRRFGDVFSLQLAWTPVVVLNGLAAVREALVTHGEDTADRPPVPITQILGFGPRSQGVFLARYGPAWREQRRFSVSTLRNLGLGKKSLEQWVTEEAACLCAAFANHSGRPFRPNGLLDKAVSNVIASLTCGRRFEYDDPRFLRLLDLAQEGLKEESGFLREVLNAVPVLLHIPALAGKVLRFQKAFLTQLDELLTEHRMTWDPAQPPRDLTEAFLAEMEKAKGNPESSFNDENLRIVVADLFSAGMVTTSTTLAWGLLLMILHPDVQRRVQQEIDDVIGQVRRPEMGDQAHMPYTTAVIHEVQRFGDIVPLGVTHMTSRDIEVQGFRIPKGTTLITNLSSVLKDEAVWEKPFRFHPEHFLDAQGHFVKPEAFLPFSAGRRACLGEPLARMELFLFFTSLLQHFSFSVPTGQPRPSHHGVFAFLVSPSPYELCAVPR

For the molecule `C[C@@H](NCCCc1cccc(C(F)(F)F)c1)c1cccc2ccccc12` [cinacalcet], the “activity to inhibit CYP2D6 (in words)” value at CYP2D6 [1] was “strong activity to inhibit CYP2D6”.

For the molecule `C[C@@H](NCC1CCN(c2cccc(C(=O)O)c2)CC1c1ccccc1F)c1cccc2ccccc12` (stereo partly drawn) [Example 35, 3-[3-(2-fluorophenyl)-4-({[(1R)-1-(1-naphthyl)ethyl]amino}methyl)piperidin-1-yl]benzoic acid hydrochloride], the EC50 at human CaSR is 7.6 nM. Besides, the inhibition in vivo at 3 mg/kg in data set [2] was 33%. For the same molecule, the half-inhibitory concentration (IC50) (commonly the midpoint of a concentration-inhibition curve) against CYP2D6 [3] was no less than 20000 nM.

Regarding `C[C@@H](NCC1CCN(c2c(F)cc(C(=O)O)cc2F)CC1c1ccccc1)c1cccc2ccccc12` (stereo partly drawn) [Example 52, 3,5-difluoro-4-[4-({[(1R)-1-(1-naphthyl)ethyl]amino}methyl)-3-phenylpiperidin-1-yl]benzoic acid hydrochloride], the EC50 on human CaSR came out at 13 nM. The inhibition in vivo at 3 mg/kg in data set [2] was 26%. The molecule further yielded an IC50 against CYP2D6 [3] of no less than 20000 nM.
